ChEMBL document CHEMBL4804284

Assays:
Parameters in all cases: scale not given: the % may be the effect or the level left
[1] = target: Tyrosine-protein kinase JAK1 (Homo sapiens) (UniProt P23458); assay: Inhibition of DNA-tagged human JAK1 JH2 pseudokinase domain assessed as percent of control at 50000 nM by qPCR analysis relative to control
[2] = target: Glycogen synthase kinase-3 beta (Homo sapiens) (UniProt P49841); assay: Inhibition of DNA-tagged human GSK3B assessed as percent of control at 50000 nM by qPCR analysis relative to control
[3] = target: Serine/threonine-protein kinase/endoribonuclease IRE1 (Homo sapiens) (UniProt O75460); assay: Inhibition of DNA-tagged human ERN1 assessed as percent of control at 50000 nM by qPCR analysis relative to control
[4] = target: Mitogen-activated protein kinase 7 (Homo sapiens) (UniProt Q13164); assay: Inhibition of DNA-tagged human ERK5 assessed as percent of control at 50000 nM by qPCR analysis relative to control
[5] = target: Ephrin type-A receptor 1 (Homo sapiens) (UniProt P21709); assay: Inhibition of DNA-tagged human EPHA1 assessed as percent of control at 50000 nM by qPCR analysis relative to control
[6] = system: Epidermal growth factor receptor (Homo sapiens), P00533 [L858R]; assay: Inhibition of DNA-tagged human EGFR L858R mutant assessed as percent of control at 50000 nM by qPCR analysis relative to control
[7] = target: Epidermal growth factor receptor (Homo sapiens) (UniProt P00533); assay: Inhibition of DNA-tagged human EGFR assessed as percent of control at 50000 nM by qPCR analysis relative to control
[8] = target: Serine/threonine-protein kinase 17A (Homo sapiens) (UniProt Q9UEE5); assay: Inhibition of DNA-tagged human DRAK1 assessed as percent of control at 50000 nM by qPCR analysis relative to control
[9] = target: Casein kinase I isoform alpha-like (Homo sapiens) (UniProt Q8N752); assay: Inhibition of DNA-tagged human CSNK1A1L assessed as percent of control at 50000 nM by qPCR analysis relative to control
Chain of Casein kinase I isoform alpha-like (Homo sapiens) (Q8N752 whole entry, canonical isoform): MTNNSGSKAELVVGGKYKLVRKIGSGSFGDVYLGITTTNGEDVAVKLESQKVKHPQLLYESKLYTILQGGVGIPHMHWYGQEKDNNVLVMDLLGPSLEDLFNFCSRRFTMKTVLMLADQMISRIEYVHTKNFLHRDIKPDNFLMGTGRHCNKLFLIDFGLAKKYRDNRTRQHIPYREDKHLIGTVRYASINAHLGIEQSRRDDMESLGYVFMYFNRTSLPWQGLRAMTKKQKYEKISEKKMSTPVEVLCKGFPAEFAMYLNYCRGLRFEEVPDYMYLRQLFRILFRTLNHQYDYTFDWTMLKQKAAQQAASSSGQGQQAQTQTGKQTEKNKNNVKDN

[10] = target: Tyrosine-protein kinase CSK (Homo sapiens) (UniProt P41240); assay: Inhibition of DNA-tagged human CSK assessed as percent of control at 50000 nM by qPCR analysis relative to control
[11] = target: Cyclin-dependent kinase-like 5 (Homo sapiens) (UniProt O76039); assay: Inhibition of DNA-tagged human CDKL5 assessed as percent of control at 50000 nM by qPCR analysis relative to control
[12] = target: 5'-AMP-activated protein kinase catalytic subunit alpha-2 (Homo sapiens) (UniProt P54646); assay: Inhibition of DNA-tagged human AMPK-alpha2 assessed as percent of control at 50000 nM by qPCR analysis relative to control
Chain of 5'-AMP-activated protein kinase catalytic subunit alpha-2 (Homo sapiens) (P54646 whole entry, looked up): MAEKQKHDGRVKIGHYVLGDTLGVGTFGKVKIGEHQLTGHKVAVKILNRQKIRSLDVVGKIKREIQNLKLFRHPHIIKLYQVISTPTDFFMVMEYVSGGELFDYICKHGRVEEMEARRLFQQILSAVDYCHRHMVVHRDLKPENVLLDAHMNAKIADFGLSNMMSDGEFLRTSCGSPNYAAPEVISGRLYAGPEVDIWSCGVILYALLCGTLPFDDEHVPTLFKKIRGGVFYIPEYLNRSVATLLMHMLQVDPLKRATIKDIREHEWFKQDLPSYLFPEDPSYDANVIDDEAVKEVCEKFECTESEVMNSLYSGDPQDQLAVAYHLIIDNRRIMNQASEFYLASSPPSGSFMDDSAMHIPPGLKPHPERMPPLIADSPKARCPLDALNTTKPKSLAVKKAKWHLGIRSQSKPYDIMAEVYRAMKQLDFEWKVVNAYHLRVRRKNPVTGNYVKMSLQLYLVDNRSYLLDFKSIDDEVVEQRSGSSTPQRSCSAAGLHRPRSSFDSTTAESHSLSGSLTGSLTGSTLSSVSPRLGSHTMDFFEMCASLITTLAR

[13] = target: Tyrosine-protein kinase ABL2 (Homo sapiens) (UniProt P42684); assay: Inhibition of DNA-tagged human ABL2 assessed as percent of control at 50000 nM by qPCR analysis relative to control
Chain of Tyrosine-protein kinase ABL2 (Homo sapiens) (P42684 whole entry): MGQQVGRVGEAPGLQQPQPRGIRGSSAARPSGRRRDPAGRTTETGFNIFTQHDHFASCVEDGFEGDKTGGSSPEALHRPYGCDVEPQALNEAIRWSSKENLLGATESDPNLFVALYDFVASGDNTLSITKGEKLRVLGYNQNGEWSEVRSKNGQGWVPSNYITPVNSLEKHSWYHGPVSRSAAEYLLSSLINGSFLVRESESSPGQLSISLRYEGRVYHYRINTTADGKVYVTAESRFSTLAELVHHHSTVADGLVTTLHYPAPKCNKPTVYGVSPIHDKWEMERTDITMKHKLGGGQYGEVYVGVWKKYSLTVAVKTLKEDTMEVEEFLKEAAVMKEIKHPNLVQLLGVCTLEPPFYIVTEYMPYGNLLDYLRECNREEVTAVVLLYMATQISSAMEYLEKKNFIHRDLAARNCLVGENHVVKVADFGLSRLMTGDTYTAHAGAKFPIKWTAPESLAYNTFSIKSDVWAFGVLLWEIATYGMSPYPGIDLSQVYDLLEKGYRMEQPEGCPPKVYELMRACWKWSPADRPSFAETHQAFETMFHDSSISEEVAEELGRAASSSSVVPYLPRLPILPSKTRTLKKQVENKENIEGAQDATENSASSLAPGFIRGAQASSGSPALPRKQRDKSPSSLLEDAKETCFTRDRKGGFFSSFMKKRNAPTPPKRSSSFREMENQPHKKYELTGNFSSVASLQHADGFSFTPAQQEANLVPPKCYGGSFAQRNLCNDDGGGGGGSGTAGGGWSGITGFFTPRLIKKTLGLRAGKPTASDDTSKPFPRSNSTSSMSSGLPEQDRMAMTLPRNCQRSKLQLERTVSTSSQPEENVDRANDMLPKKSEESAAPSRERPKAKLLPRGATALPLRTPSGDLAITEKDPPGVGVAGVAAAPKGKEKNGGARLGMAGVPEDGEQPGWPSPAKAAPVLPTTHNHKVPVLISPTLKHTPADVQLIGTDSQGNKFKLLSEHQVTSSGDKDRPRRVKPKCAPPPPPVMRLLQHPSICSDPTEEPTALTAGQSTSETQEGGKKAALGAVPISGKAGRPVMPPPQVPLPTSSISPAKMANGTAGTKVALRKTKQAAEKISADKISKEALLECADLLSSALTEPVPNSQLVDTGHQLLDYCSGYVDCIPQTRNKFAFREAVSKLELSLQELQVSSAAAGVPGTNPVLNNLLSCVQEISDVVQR

[14] = system: Tyrosine-protein kinase ABL1 (Homo sapiens), P00519 [T315I]; assay: Inhibition of DNA-tagged phosphorylated human ABL1 T315I mutant assessed as percent of control at 50000 nM by qPCR analysis relative to control
[15] = system: Tyrosine-protein kinase ABL1 (Homo sapiens), P00519 [Q252H]; assay: Inhibition of DNA-tagged non-phosphorylated human ABL1 Q252H mutant assessed as percent of control at 50000 nM by qPCR analysis relative to control
[16] = target: Serine/threonine-protein kinase MAK (Homo sapiens) (UniProt P20794); assay: Inhibition of DNA-tagged human MAK assessed as percent of control at 50000 nM by qPCR analysis relative to control
[17] = target: Misshapen-like kinase 1 (Homo sapiens) (UniProt Q8N4C8); assay: Inhibition of DNA-tagged human MINK assessed as percent of control at 50000 nM by qPCR analysis relative to control
[18] = target: Serine/threonine-protein kinase MRCK beta (Homo sapiens) (UniProt Q9Y5S2); assay: Inhibition of DNA-tagged human MRCKB assessed as percent of control at 50000 nM by qPCR analysis relative to control
Chain of Serine/threonine-protein kinase MRCK beta (Homo sapiens) (Q9Y5S2 whole entry): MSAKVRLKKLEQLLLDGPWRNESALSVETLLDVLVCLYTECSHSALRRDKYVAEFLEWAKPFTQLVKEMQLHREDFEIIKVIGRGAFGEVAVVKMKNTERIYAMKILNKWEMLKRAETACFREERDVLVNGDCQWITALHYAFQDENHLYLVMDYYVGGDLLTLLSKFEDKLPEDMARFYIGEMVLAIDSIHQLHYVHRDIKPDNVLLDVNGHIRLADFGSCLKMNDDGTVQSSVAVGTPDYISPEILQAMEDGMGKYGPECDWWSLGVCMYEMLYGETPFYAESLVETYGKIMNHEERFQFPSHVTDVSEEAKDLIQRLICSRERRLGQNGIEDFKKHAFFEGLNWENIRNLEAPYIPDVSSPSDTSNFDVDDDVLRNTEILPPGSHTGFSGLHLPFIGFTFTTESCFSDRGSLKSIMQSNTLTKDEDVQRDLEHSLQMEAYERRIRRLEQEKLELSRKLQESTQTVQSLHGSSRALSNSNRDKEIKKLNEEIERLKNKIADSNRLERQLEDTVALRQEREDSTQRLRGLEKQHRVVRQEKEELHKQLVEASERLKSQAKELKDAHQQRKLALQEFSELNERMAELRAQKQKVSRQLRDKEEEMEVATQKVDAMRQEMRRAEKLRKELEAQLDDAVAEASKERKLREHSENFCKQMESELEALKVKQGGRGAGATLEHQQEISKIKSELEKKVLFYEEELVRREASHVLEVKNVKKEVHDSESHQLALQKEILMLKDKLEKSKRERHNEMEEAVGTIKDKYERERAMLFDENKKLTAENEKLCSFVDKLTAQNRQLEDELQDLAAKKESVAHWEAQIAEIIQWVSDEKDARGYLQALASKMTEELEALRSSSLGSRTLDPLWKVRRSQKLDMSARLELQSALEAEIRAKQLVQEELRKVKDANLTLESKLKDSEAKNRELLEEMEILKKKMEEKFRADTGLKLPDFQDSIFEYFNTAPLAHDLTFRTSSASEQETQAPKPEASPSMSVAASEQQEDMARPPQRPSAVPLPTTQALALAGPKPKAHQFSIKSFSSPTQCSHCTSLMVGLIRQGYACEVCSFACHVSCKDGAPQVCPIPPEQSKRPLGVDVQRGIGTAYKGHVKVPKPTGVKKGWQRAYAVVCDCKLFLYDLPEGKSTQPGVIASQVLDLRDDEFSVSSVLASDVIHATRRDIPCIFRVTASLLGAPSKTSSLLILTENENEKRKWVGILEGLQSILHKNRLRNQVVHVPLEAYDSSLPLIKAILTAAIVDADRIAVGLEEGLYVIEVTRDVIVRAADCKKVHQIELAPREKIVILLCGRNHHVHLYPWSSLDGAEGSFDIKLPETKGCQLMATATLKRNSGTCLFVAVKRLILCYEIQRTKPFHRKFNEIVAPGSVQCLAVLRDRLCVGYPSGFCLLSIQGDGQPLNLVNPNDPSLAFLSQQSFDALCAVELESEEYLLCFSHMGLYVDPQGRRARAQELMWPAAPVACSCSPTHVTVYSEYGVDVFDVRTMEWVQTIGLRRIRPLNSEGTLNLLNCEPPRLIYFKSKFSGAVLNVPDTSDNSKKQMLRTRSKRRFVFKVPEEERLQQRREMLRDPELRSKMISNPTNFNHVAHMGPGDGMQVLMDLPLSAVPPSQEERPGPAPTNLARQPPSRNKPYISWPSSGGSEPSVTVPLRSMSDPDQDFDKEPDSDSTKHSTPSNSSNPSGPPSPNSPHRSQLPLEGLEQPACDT

[19] = target: Myosin light chain kinase, smooth muscle (Homo sapiens) (UniProt Q15746); assay: Inhibition of DNA-tagged human MYLK assessed as percent of control at 50000 nM by qPCR analysis relative to control
[20] = target: Myosin light chain kinase family member 4 (Homo sapiens) (UniProt Q86YV6); assay: Inhibition of DNA-tagged human MYLK4 assessed as percent of control at 50000 nM by qPCR analysis relative to control
[21] = target: cAMP-dependent protein kinase catalytic subunit beta (Homo sapiens) (UniProt P22694); assay: Inhibition of DNA-tagged human PKAC-beta assessed as percent of control at 50000 nM by qPCR analysis relative to control
[22] = target: Membrane-associated tyrosine- and threonine-specific cdc2-inhibitory kinase (Homo sapiens) (UniProt Q99640); assay: Inhibition of DNA-tagged human PKMYT1 assessed as percent of control at 50000 nM by qPCR analysis relative to control
Chain of Membrane-associated tyrosine- and threonine-specific cdc2-inhibitory kinase (Homo sapiens) (Q99640 whole entry, the tested form may be a part): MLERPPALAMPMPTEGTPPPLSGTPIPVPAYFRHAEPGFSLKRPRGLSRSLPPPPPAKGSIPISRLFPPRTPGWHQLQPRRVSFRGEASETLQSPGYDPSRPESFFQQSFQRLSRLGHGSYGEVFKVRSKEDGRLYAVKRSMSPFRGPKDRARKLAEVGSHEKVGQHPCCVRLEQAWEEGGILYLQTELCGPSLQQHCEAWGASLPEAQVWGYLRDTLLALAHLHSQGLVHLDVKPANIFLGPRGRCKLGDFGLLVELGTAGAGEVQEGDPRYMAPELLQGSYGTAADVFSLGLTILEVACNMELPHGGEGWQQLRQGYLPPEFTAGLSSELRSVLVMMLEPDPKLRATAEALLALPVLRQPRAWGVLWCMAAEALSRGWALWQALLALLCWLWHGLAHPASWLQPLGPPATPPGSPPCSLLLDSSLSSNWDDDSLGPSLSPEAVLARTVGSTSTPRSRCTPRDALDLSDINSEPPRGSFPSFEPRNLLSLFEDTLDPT

[23] = target: Ribosomal protein S6 kinase alpha-4 (Homo sapiens) (UniProt O75676); assay: Inhibition of DNA-tagged human C-terminal RPS6KA4 kinase domain 2 assessed as percent of control at 50000 nM by qPCR analysis relative to control
Chain of Ribosomal protein S6 kinase alpha-4 (Homo sapiens) (O75676 whole entry, looked up, the tested form may be a part): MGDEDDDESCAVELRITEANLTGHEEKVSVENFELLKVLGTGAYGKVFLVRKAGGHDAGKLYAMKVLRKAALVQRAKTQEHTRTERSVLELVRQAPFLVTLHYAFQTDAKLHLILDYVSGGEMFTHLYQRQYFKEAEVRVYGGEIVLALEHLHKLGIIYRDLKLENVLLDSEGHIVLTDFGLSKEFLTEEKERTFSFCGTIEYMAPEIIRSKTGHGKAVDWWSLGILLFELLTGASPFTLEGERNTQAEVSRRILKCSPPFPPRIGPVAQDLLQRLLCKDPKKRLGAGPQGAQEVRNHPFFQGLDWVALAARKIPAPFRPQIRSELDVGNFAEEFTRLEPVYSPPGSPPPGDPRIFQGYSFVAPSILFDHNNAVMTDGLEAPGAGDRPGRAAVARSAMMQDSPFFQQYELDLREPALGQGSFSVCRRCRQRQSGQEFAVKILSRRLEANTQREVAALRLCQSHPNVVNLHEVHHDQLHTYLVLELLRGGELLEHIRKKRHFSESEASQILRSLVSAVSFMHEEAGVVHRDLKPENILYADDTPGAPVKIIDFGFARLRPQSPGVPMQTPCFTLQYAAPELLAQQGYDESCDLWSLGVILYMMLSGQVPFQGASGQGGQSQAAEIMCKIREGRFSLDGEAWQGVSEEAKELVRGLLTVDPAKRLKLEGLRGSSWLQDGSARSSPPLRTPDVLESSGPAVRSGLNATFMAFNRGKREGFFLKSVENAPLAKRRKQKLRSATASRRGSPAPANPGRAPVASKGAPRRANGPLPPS

[24] = target: Ribosomal protein S6 kinase alpha-6 (Homo sapiens) (UniProt Q9UK32); assay: Inhibition of DNA-tagged human C-terminal RSK4 kinase domain 2 assessed as percent of control at 50000 nM by qPCR analysis relative to control
[25] = target: Serine/threonine-protein kinase 36 (Homo sapiens) (UniProt Q9NRP7); assay: Inhibition of DNA-tagged human STK36 assessed as percent of control at 50000 nM by qPCR analysis relative to control
[26] = target: STE20/SPS1-related proline-alanine-rich protein kinase (Homo sapiens) (UniProt Q9UEW8); assay: Inhibition of DNA-tagged human STK39 assessed as percent of control at 50000 nM by qPCR analysis relative to control
[27] = target: Serine/threonine-protein kinase TAO3 (Homo sapiens) (UniProt Q9H2K8); assay: Inhibition of DNA-tagged human TAOK3 assessed as percent of control at 50000 nM by qPCR analysis relative to control
[28] = target: Non-receptor tyrosine-protein kinase TYK2 (Homo sapiens) (UniProt P29597); assay: Inhibition of DNA-tagged human TYK2 JH1 catalytic domain assessed as percent of control at 50000 nM by qPCR analysis relative to control
[29] = target: Serine/threonine-protein kinase 32B (Homo sapiens) (UniProt Q9NY57); assay: Inhibition of DNA-tagged human YANK2 assessed as percent of control at 50000 nM by qPCR analysis relative to control

CN1C(=O)/C(=C2/C(=O)Nc3ccccc32)c2ccccc21
Activity [1]: 100%
Activity [2]: 90%
Activity [3]: 83%
Activity [4]: 97%
Activity [5]: 100%
Activity [6]: 89%
Activity [7]: 100%
Activity [8]: 100%
Activity [9]: 97%
Activity [10]: 100%
Activity [11]: 91%
Activity [12]: 100%
Activity [13]: 89%
Activity [14]: 98%
Activity [15]: 100%
Activity [16]: 71%
Activity [17]: 75%
Activity [18]: 83%
Activity [19]: 82%
Activity [20]: 87%
Activity [21]: 91%
Activity [22]: 100%
Activity [23]: 89%
Activity [24]: 71%
Activity [25]: 90%
Activity [26]: 78%
Activity [27]: 85%
Activity [28]: 77%
Activity [29]: 100%
